Reference: patent US4024277A, “Phosphoro-aminosulfenyl derivatives of benzofuran carbamates” (priority 1975, dated 1977)

Tests used:
large milkweed bug [1] = assay: Initial insecticidal activity, milkweed bug; assay type: in vivo, Oncopeltus fasciatus (Dallas); conditions: Oncopeltus fasciatus, 48-hour exposure, read-out: % Kill, Milkweed Bug
Excerpt: (§1) a. Initial Insecticidal Activity
(§2) In this test, a candidate insecticide, in solution, is applied to either infested or uninfested plants or containers by spraying or dipping. (The preferred test procedure varies with insect species. The dipping method is better than the spraying method, and vice versa, for certain species of insects. Also some species are better adapted to the test by infesting after the chemical treatment rather than before.) Once the tests have been established, a 48-hour exposure period is observed before reading the tests. Insect species included in these tests are Mexican bean beetle (Epilachna varivestis Mulsant), pea aphid [Acyrthosiphon pisum (Harris)], southern armyworm [Spodoptera eridania (Cramer)], twospotted spider mite (Tetranychus urticae Koch), large milkweed bug [Oncopeltus fasciatus (Dallas)], plum curculio [Conotrachelus nenuphar (Herbst)], confused flour beetle (Tribolium confusum Jacquelin duVal) and granary weevil [Sitophilus granarius (Linnaeus)]. Test results are set forth in Table I. A control sample, comprising the solution without the candidate insecticide, is also included.

twospotted spider mite = assay: Systemic insecticidal activity (soil/water), twospotted spider mite; assay type: in vivo, Tetranychus urticae Koch; conditions: Tetranychus urticae, 48-hour exposure, read-out: % Kill, Twospotted Spider Mite
Protocol: (§3) c. Systemic Insecticidal Acitivity (Soil/Water)
(§4) In this test, a candidate insecticide, in solution, is added to the soil of either uninfested pinto bean seedlings (Phaseolus vulgaris) or uninfested broad bean seedlings (Vicia faba var. Windsor). The plant species used depend on the insect species in the test. Usually, a 72-hour translocation period before infestation is required, followed by a 48-hour exposure period, before evaluation of the tests. The insect species used in the systemic tests are Mexican bean beetle, southern armyworm, pea aphid, and twospotted spider mite.

large milkweed bug [2] = assay: Seven-day residual insecticidal activity, milkweed bug; assay type: in vivo, Oncopeltus fasciatus (Dallas); conditions: Oncopeltus fasciatus, 48-hour exposure, read-out: % Kill, Milkweed Bug
Excerpt: (§5) b. Seven-Day Residual Insecticidal Activity
(§6) In this test, a candidate insecticide, in solution, is applied to uninfested plants or containers by dipping or spraying. A seven-day holding period is necessary before infestation. A 48-hour exposure period is observed before evaluation of the tests. The insect species used in this type of test are the same as those listed under initial activity.

[3] = Mammalian toxicity, 14-day LD50 in rats; conditions: rat, in vivo, Wistar derived albino rats, method of Miller and Tainter
Excerpt: The compounds of this invention are characterized by advantageous mammalian toxicity values when compared with values for related compounds. This is shown by comparative values obtained with Wistar derived albino rats in 14-day tests. The animals were fed, housed and watered in accordance with standard laboratory procedures. The 14-day LD50 determination was estimated in accord with the method of Miller and Tainter (Experimental Biology and Medicine, 57, pp. 261-264, 1944).

granary weevil [4] = assay: Initial insecticidal activity, granary weevil; assay type: in vivo, Sitophilus granarius (Linnaeus); conditions: Sitophilus granarius, 48-hour exposure, read-out: % Kill, Granary Weevil
Excerpt: as §1, §2

southern armyworm [5] = assay: Systemic insecticidal activity (soil/water), southern armyworm; assay type: in vivo, Spodoptera eridania (Cramer); conditions: Spodoptera eridania, 48-hour exposure, read-out: % Kill, Southern Armyworm
Protocol: as §3, §4

southern armyworm [6] = assay: Seven-day residual insecticidal activity, southern armyworm; assay type: in vivo, Spodoptera eridania (Cramer); conditions: Spodoptera eridania, 48-hour exposure, read-out: % Kill, Southern Armyworm
Excerpt: as §5, §6

pea aphid = assay: Initial insecticidal activity, pea aphid; assay type: in vivo, Acyrthosiphon pisum (Harris); conditions: Acyrthosiphon pisum, 48-hour exposure, read-out: % Kill, Pea Aphid
Excerpt: as §1, §2

granary weevil [7] = assay: Seven-day residual insecticidal activity, granary weevil; assay type: in vivo, Sitophilus granarius (Linnaeus); conditions: Sitophilus granarius, 48-hour exposure, read-out: % Kill, Granary Weevil
Excerpt: as §5, §6

Mexican bean beetle [8] = assay: Seven-day residual insecticidal activity, Mexican bean beetle; assay type: in vivo, Epilachna varivestis Mulsant; conditions: Epilachna varivestis, 48-hour exposure, read-out: % Kill, Mexican Bean Beetle
Excerpt: as §5, §6

confused flour beetle = assay: Seven-day residual insecticidal activity, confused flour beetle; assay type: in vivo, Tribolium confusum Jacquelin duVal; conditions: Tribolium confusum, 48-hour exposure, read-out: % Kill, Confused Flour Beetle
Excerpt: as §5, §6

Mexican bean beetle [9] = assay: Initial insecticidal activity, Mexican bean beetle; assay type: in vivo, Epilachna varivestis Mulsant; conditions: Epilachna varivestis, 48-hour exposure, read-out: % Kill, Mexican Bean Beetle
Excerpt: as §1, §2

**Q.** Which mortality at 39 ppm (large milkweed bug [1]; 39 ppm) does the source give for CCOP(=O)(OCC)N(C)SN(C)C(=O)Oc1cccc2c1OC(C)(C)C2 [Example 1(c), 2,3-dihydro-2,2-dimethyl-7-benzofuranyl [(N-diethoxyphosphinyl) (N-methyl)-aminosulfenyl][methyl]carbamate] here?
**A.** 100%

**Q.** What about the mortality at 156 ppm (large milkweed bug [1]; 156 ppm) of the same molecule?
**A.** 100%

**Q.** What about the mortality at 1250 ppm (large milkweed bug [1]; 1250 ppm) of the same molecule?
**A.** 100%

**Q.** What about the mortality at 39 ppm (twospotted spider mite; 39 ppm) of the same molecule?
**A.** 2%

**Q.** What about the mortality at 156 ppm (twospotted spider mite; 156 ppm) of the same molecule?
**A.** 8%

**Q.** What about the mortality at 39 ppm (large milkweed bug [2]; 39 ppm) of the same molecule?
**A.** 55%

**Q.** And the mortality at 156 ppm (large milkweed bug [2]; 156 ppm)?
**A.** 100%

**Q.** What about the mortality at 1250 ppm (large milkweed bug [2]; 1250 ppm) of the same molecule?
**A.** 100%

**Q.** What about the LD50 at 336 h [3] of the same molecule?
**A.** 146 mg/kg

**Q.** And the mortality at 39 ppm (granary weevil [4]; 39 ppm)?
**A.** 30%

**Q.** What about the mortality at 156 ppm (granary weevil [4]; 156 ppm) of the same molecule?
**A.** 100%

**Q.** What about the mortality at 1250 ppm (granary weevil [4]; 1250 ppm) of the same molecule?
**A.** 100%

**Q.** And the mortality at 39 ppm (southern armyworm [5]; 39 ppm)?
**A.** 0%

**Q.** And the mortality at 156 ppm (southern armyworm [5]; 156 ppm)?
**A.** 92%

**Q.** And the mortality at 39 ppm (southern armyworm [6]; 39 ppm)?
**A.** 0%

**Q.** And the mortality at 156 ppm (southern armyworm [6]; 156 ppm)?
**A.** 5%

**Q.** And the mortality at 1250 ppm (southern armyworm [6]; 1250 ppm)?
**A.** 95%

**Q.** And the mortality at 39 ppm (pea aphid; 39 ppm)?
**A.** 0%

**Q.** And the mortality at 156 ppm (pea aphid; 156 ppm)?
**A.** 100%

**Q.** And the mortality at 1250 ppm (pea aphid; 1250 ppm)?
**A.** 100%

**Q.** What about the mortality at 39 ppm (granary weevil [7]; 39 ppm) of the same molecule?
**A.** 8%

**Q.** And the mortality at 156 ppm (granary weevil [7]; 156 ppm)?
**A.** 97%

**Q.** What about the mortality at 1250 ppm (granary weevil [7]; 1250 ppm) of the same molecule?
**A.** 100%

**Q.** And the mortality at 39 ppm (Mexican bean beetle [8]; 39 ppm)?
**A.** 38%

**Q.** And the mortality at 156 ppm (Mexican bean beetle [8]; 156 ppm)?
**A.** 89%

**Q.** And the mortality at 1250 ppm (Mexican bean beetle [8]; 1250 ppm)?
**A.** 86%

**Q.** And the mortality at 39 ppm (confused flour beetle; 39 ppm)?
**A.** 10%

**Q.** And the mortality at 156 ppm (confused flour beetle; 156 ppm)?
**A.** 18%

**Q.** And the mortality at 1250 ppm (confused flour beetle; 1250 ppm)?
**A.** 23%

**Q.** And the mortality at 39 ppm (Mexican bean beetle [9]; 39 ppm)?
**A.** 100%

**Q.** What about the mortality at 156 ppm (Mexican bean beetle [9]; 156 ppm) of the same molecule?
**A.** 100%

**Q.** And the mortality at 1250 ppm (Mexican bean beetle [9]; 1250 ppm)?
**A.** 100%
